Measured values: patent US8722580B2, “Agent for inhibiting cytokinin signaling” (Sumitomo Chemical Company, Limited, priority 2006, dated 2014)

Assays:
rice [1] = assay: Root growth-promoting activity by rice seed treatment (Example 12); assay type: in vivo, Oriza sativa L. japonica; conditions: rice seeds treated with 10,000 ppm acetone solution; 4 days dark at 30° C. then 35 days greenhouse
Experimental: With respect to the chemical substance Ic3-1 and the chemical substance Ic7-1 (which inhibit intracellular signaling from a plant-derived cytokinin receptor of a cell) selected in Example 7, a main root-growth promoting activity induced by seed treatment was evaluated using rice (Oriza sativa L. japonica). The chemical substance was dissolved in acetone to prepare a 10,000 ppm solution. The acetone chemical substance solution (300 μl) thus prepared was put in an eppendorf tube. Then, 15 seeds were put in the eppendorf tube. The resulting mixture was mixed for about 30 seconds. The seeds thus chemical-treated were spread and dried on a filter paper.
About 820 ml of culture soil was placed in a plastic container (120 mm in length, 97 mm in height) with a hole in the bottom. The chemical-treated seeds were sowed in the plastic container (15 seeds per plastic container). The seeds were cultivated in a dark place at 30° C. for 4 days and then cultivated in a greenhouse for 35 days. Roots of the plant thus cultivated were removed and the soil adhered to the plant was washed away, followed by freeze-drying. Then, the weight of roots after freeze-drying was measured. A test was repeated 3 times for each treatment section, and an average was determined.

[2] = system: hypocotyl of Arabidopsis thaliana; assay: Plant differentiation-promoting activity, adventitious root formation from hypocotyl (Example 13); assay type: in vivo, Arabidopsis thaliana Columbia; conditions: agar medium with trans-zeatin 0.01 ppm
Experimental: With respect to the chemical substance Ic3-1 and the chemical substance Ic7-1 (which inhibit intracellular signaling from a plant-derived cytokinin receptor of a cell) selected in Example 7, a plant differentiation-promoting activity was evaluated by examining an adventitious root formation activity using an hypocotyl of Arabidopsis thaliana Columbia.
First, an agar medium for sowing Arabidopsis thaliana was prepared. The agar medium contains, as components per 1 liter of an aqueous solution, 1 parcel of mixed salts for Murashige-Scoog plant medium (Wako Pure Chemical Industries, Ltd.) for 1 liter, 10 g of sucrose, 10 ml of an aqueous 5% MES (2-(N-Morpholino)ethanesulfonic acid) solution adjusted to pH 5.7 with potassium hydroxide, 100 mg of inositol, 1 ml of vitamins stock solution (10 g of thiamine hydrochloride, 1 g of pyridoxine hydrochloride, and 1 g of nicotinic acid per 1 liter of an aqueous solution) and 8 g of agar. Then, the agar medium was subjected to autoclave at 120° C. for 20 minutes, dispensed to circular petri dishes, and then solidified.
Seeds of Arabidopsis thaliana (about 25 μl) were put in a 1.5 ml tube. Thereto was added 1 ml of a 10-fold diluted solution of a sodium hypochlorite solution (Nacalai Tesque) with sterilized distilled water. The seed were sterilized while stirring for about 1 minute with a tube mixer (TOMY, MT-360, MIXING SPEED10). […]

[3] = system: transformed cell TM182-p415CYC1; assay: Control growth test with transformed yeast cell TM182-p415CYC1 (toxicity to yeast); assay type: cell-based; conditions: trans-zeatin 0.6 ppm; chemical substance 2 ppm; 30° C., 24 hours; turbidity OD 600
Outline: (§1)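 Relative growth % is derived from blank-corrected OD600 against DMSO wells after 24 h at 30° C, with inhibition given as 100 minus that value. Cells were set to OD600=0.1 with 0.6 ppm trans-zeatin and 2 ppm test substance: CRE1 strain in DOLU+Glu, p415CYC1 toxicity control in DOLU+Gal.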

cytokinin receptor CRE1 [4] = target: T1, cytokinin receptor CRE1 (Arabidopsis thaliana, UniProt Q9C5U0, S567G/T1018A); assay: Inhibition of intracellular signaling from plant-derived cytokinin receptor, growth of transformed yeast cell TM182-CRE1; assay type: cell-based; conditions: for inhibition at 2 ppm: read-out: Activity (%) of test substance for inhibiting intracellular signaling from plant-derived cytokinin receptor of cell; for Relative growth rate (%) in test section of test substance to control section, Transformed cell TM182-CRE1 / Activity (%) of test substance for inhibiting intracellular signaling from plant-derived cytokinin receptor of cell: trans-zeatin 0.6 ppm, chemical substance 2 ppm; for Relative growth rate (%) in test section of test substance to control section, Transformed cell TM182-CRE1: 30° C., 24 hours, turbidity OD 600; for Activity (%) of test substance for inhibiting intracellular signaling from plant-derived cytokinin receptor of cell: = 100 − relative growth rate of TM182-CRE1
T1 construct: expressed in transfected cells; host or cells: Saccharomyces cerevisiae TM182 (sln1Δ) transformed with p415CYC-CRE1
T1 sequence (Q9C5U0 24-1080 S567G/T1018A): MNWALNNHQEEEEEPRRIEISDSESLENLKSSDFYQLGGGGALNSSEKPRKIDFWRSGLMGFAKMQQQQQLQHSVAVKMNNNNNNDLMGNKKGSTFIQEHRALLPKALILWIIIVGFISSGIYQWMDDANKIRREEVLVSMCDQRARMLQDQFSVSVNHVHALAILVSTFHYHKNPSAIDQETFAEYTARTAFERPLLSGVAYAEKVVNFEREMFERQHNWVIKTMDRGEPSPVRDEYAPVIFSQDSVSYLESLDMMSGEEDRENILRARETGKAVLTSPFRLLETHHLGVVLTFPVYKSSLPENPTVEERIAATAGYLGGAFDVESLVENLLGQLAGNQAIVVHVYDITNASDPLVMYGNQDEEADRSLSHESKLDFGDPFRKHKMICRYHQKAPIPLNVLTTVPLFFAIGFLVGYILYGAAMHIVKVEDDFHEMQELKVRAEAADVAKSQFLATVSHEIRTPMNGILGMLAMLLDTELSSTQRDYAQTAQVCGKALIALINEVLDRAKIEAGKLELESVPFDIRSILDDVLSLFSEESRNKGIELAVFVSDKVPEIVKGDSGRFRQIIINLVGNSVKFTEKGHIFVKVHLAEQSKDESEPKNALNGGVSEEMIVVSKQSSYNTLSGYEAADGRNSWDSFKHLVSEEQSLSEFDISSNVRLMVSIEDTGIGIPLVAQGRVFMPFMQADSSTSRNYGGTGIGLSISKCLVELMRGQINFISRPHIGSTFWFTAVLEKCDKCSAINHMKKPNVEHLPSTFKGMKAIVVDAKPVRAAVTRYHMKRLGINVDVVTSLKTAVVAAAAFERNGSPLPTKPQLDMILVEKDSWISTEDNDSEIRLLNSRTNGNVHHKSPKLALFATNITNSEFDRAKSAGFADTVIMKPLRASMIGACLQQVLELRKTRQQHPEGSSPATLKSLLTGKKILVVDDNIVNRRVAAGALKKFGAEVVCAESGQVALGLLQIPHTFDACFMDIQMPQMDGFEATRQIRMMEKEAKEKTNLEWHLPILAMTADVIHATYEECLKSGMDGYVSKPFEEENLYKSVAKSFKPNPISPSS
Outline: as §1

rice [5] = assay: Root growth-promoting activity using rice, seed growth pouch (Example 11); assay type: in vivo, Oriza sativa L. japonica; conditions: 25° C., 7 days
Experimental: With respect to the chemical substance Ic3-1 and the chemical substance Ic7-1 (which inhibit intracellular signaling from a plant-derived cytokinin receptor of a cell) selected in Example 7, a main root-growth promoting activity was evaluated using rice (Oriza sativa L. japonica). Aqueous solutions of the chemical substance having different concentrations (10 ppm, 25 ppm, each containing 0.1% DMSO) were prepared. A naper towel was impregnated with 17 ml of the chemical solution, wherein the heavy paper was placed in a seed growth pouch for observation of root growth (177 mm×163 mm, manufactured by Daiki Rika Kogyo Co., Ltd.), and 3 rice seeds were sowed on the paper towel. The pouch was put in a plastic container, and then sealed. After culture in the light at 25° C. for 7 days, the length of a main root was measured. An average of 3 repeats was determined and a root growth rate was determined by the following equation. Root growth rate (%)=(Average main root length in chemical substance-treated section)/(Average main root length in control section)×100−100

Arabidopsis thaliana [6] = assay: Root growth-promoting activity test (Example 22); assay type: in vivo; conditions: main root length vs control section, 22° C., 10 days
Experimental: Enshi standard medium having the following composition (see Table 18) was prepared. To cluster tubes was dispensed each 4 μl of a solution of a chemical substance in DMSO to a final concentration of 0.001 ppm to 10 ppm, and then, was dispensed each 600 μl of the sterilized Enshi standard medium. Then the resulting solution was well mixed. In each of the cluster tubes, 10-20 seeds of Arabidopsis thaliana were sown, and cultured at 22° C. for 10 days in the light. Then, the length of main roots (average main roots) generated from the seeds of Arabidopsis thaliana was measured. An average of eight repeats was determined, and a root growth rate was determined according to the following equation.
Root growth rate (%)=(Average main root length in chemical substance-treated section)/(Average main root length in control section)×100
Enshi standard medium determined having the following composition (Table 18) was prepared. A DMSO solution of a chemical substance was dispensed by 4 μl to cluster tubes to a final concentration of 0.001 ppm to 10 ppm and the sterilized Enshi standard medium was dispensed by 600 μl and then the resulting solution was well mixed. 10-20 seeds of A. thaliana per cluster tube were sown in the cluster tubes. After culture at 22° C. for 10 days in bright light, the length of main roots (average main roots) took from seeds of A. thaliana was measured. An average of eight repeats was determined and the root growth rate was determined.
Root growth rate (%)=(Average main root length of chemical substance-treated section)/(Average main root length of control section)×100

cytokinin receptor CRE1 [7] = target: T1, cytokinin receptor CRE1; assay type: binding; conditions: radiolabel 2IP 10 nM; test substance 10 μM
Experimental: As the cytokinin labeled with a radioisotope of hydrogen, tritium so as to become highly radioactive, [3H]N-6-(isopent-2-enyl)Adenine manufactured by Amersham Biosciences (hereinafter, referred to as radiolabel 2IP) was used.
First, 100 μg of the membrane protein fraction of the transformed cell TM182-p415CYC1, a radiolabel 2IP dilution at a predetermined concentration with a phosphate buffer and 1 μl of a test substance dilution at a predetermined concentration with DMSO were mixed in a phosphate buffer to prepare 100 μl of a reaction liquid. Next, the reaction liquid was allowed to stand in ice for 1 hour and then filtered with a glass filter GF/B (manufactured by Whatman) to collect a membrane protein fraction of the transformed cell TM182-p425GPD-CRE1. The glass filter was immersed in a liquid scintillation cocktail Ultima Gold (manufactured by PerkinElmer Co., Ltd.), and radioactivity was measured by a liquid scintillation counter. […] In order to eliminate influence of radioactivity due to nonspecific binding of the radiolabel 2IP, a value of radioactivity obtained in the test using the membrane protein fraction of the transformed cell TM182-p425GPD was subtracted from a value of radioactivity obtained in the test using the membrane protein fraction of the transformed cell TM182-p425GPD-CRE1.

Arabidopsis thaliana [8] = assay: Root growth-promoting activity test (Example 9); assay type: in vivo; conditions: main root length vs control section, 22° C., 10 days
Outline: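 Compounds at 0.001–10 ppm final (added in DMSO) were mixed into Enshi medium, and Arabidopsis thaliana seeds were cultured in it for 10 days at 22° C under light. Root growth rate (%) is the treated mean main-root length divided by the control mean, from eight repeats.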

Row | SMILES | dry weight of roots per plant, % of the control section (rice [1]) | Relative growth rate (%) in test section of test substance to control section, Transformed cell TM182-p415CYC1 [3] | inhibition at 2 ppm (cytokinin receptor CRE1 [4]) | Relative growth rate (%) in test section of test substance to control section, Transformed cell TM182-CRE1 (cytokinin receptor CRE1 [4]) | melting point | main root growth increase relative to the control section (rice [5]; 10 ppm) | main root growth increase relative to the control section (rice [5]; 25 ppm) | Activity (%) of test substance for inhibiting intracellular signaling from plant-derived cytokinin receptor of cell (cytokinin receptor CRE1 [4]) | radioactivity of bound radiolabel 2IP compared with DMSO only or abscisic acid (cytokinin receptor CRE1 [7]) | other results
1 | O=C(O)Cc1c[nH]c2ccccc12 [IAA, reference compound] | 87% | – | – | – | – | – | – | – | – | –
2 | OCCNc1nc(-c2ccccc2)c2cc(Cl)ccc2n1 [Ic3-1, 6-chloro-2-(2-hydroxyethylamino)-4-phenylquinazoline] | 119% | 114.1% | 94.6% | 5.4% | 137.9 °C | 17% | 20% | – | – | adventitious root formation from the hypocotyl portion ([2]; all test sections, final concentration 6 ppm, 2 ppm, 0.6 ppm or 0.2 ppm): adventitious roots were formed
3 | OCCCCNc1nc(-c2ccccc2)c2cc(Cl)ccc2n1 [Ic3-4] | – | 106.4% | – | 1.4% | – | – | – | 98.6% | the radioactivity was decreased | Root growth-promoting activity (root growth rate) (Arabidopsis thaliana [6]; test final concentration 0.625 ppm (highest root growth rate)): 129.5%; Root growth-promoting activity (root growth rate) (Arabidopsis thaliana [8]; test final concentration 0.625 ppm (concentration with highest root growth rate)): 129.5%
4 | C/C(=C\CNc1ncnc2nc[nH]c12)CO [trans-zeatin, reference compound] | – | – | – | – | – | – | – | – | the radioactivity was decreased | –
5 | O=[N+]([O-])c1ccc2nc(NCCCO)nc(-c3ccccc3)c2c1 [Ic7-1] | 126% | 115.8% | – | 6.7% | – | 17% | 19% | 93.3% | – | adventitious root formation from the hypocotyl portion ([2]; test sections with final concentration 6 ppm or 2 ppm): adventitious roots were formed
6 | CCOC(=O)CNc1nc(-c2ccccc2)c2cc(Cl)ccc2n1 [Ic3-33, 6-chloro-2-ethoxycarbonylmethylamino-4-phenylquinazoline] | – | 114.6% | 99% | 1.0% | 146.1 °C | – | – | – | – | Root growth-promoting activity (root growth rate) (Arabidopsis thaliana [6]; test final concentration 10 ppm (highest root growth rate)): 140.4%; activity at 5 ppm (Arabidopsis thaliana [8]; Arabidopsis thaliana, 240 h, test final concentration 5 ppm (concentration with highest root growth rate)): 124%
